Results published in ChEMBL document CHEMBL5465560, “Selectivity Literature for EUbOPEN Chemogenomic Library” (2024).

Columns and labels:
[1] = target: Activin receptor type-2A (Homo sapiens) (UniProt P27037); settings: at 10 µM
[2] = target: Tyrosine-protein kinase JAK1 (Homo sapiens, UniProt P23458); assay: Selectivity interaction (KinomeScan (DiscoverX)) EUB0000229b JAK1; settings: at 10 µM
[3] = target: Ephrin type-A receptor 7 (Homo sapiens) (UniProt Q15375); assay: Selectivity interaction (KinomeScan (DiscoverX)) EUB0000092b EPHA7; settings: at 10 µM
Chain of Ephrin type-A receptor 7 (Homo sapiens) (Q15375 28-998 limits assumed): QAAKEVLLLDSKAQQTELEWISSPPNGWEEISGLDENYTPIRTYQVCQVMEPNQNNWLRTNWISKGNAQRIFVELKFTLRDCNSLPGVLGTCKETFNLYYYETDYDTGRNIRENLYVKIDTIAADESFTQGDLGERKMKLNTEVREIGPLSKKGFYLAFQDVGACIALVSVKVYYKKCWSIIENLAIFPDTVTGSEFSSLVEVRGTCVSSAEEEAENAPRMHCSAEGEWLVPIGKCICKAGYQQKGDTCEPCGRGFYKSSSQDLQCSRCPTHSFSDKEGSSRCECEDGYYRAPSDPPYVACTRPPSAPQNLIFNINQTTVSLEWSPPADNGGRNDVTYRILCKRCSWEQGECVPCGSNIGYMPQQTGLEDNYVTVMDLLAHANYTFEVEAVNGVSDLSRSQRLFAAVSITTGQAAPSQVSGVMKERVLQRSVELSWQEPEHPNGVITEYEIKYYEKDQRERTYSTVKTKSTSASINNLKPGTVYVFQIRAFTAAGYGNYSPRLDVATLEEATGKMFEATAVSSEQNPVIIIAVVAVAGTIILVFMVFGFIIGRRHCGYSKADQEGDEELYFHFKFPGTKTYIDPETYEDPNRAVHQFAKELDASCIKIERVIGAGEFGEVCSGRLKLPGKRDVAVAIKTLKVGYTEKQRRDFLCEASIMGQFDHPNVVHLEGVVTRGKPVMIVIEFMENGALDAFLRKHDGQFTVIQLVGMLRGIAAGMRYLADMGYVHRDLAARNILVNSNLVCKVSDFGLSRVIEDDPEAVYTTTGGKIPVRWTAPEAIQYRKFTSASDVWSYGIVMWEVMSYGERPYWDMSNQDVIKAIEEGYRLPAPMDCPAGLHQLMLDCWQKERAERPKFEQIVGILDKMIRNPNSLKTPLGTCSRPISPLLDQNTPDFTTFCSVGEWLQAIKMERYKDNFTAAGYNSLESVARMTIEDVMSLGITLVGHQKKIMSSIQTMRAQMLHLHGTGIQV

[4] = target: Homeodomain-interacting protein kinase 3 (Homo sapiens, UniProt Q9H422); assay: Selectivity interaction (Upstate Kinase Profiler service (Millipore)) EUB0000056c HIPK3; settings: at 1 µM
Ephrin type-A receptor 4 = Ephrin type-A receptor 4 (Homo sapiens, UniProt P54764); assay: Selectivity interaction (ProQinase) EUB0000171b EPHA4
Chain of Ephrin type-A receptor 4 (P54764 whole entry): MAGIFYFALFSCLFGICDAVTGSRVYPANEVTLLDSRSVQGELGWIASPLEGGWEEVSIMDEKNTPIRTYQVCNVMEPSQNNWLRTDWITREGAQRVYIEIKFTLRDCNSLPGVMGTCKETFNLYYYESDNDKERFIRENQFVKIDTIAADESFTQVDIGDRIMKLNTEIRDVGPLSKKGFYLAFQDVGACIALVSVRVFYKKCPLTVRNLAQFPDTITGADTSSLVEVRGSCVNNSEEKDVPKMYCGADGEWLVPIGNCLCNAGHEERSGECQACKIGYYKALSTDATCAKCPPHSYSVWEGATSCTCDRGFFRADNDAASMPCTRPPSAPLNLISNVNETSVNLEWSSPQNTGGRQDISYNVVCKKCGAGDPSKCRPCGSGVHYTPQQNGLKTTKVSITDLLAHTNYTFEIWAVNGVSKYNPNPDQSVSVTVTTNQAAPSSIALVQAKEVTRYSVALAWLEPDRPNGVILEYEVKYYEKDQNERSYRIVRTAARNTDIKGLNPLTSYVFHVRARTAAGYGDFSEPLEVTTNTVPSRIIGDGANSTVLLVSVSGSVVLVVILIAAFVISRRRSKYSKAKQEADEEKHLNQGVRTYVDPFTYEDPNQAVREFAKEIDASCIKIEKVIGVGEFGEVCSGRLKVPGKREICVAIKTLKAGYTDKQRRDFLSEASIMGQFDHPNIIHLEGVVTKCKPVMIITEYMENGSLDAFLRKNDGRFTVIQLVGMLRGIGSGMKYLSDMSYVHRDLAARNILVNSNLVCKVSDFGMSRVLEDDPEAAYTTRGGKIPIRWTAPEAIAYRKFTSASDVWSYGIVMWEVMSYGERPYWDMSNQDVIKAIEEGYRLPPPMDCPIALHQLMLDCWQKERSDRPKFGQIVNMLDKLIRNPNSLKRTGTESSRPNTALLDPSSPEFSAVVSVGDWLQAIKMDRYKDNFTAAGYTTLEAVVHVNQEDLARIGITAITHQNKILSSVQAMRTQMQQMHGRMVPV

[5] = target: Mitogen-activated protein kinase 10 (Homo sapiens, UniProt P53779); assay: Selectivity interaction (Kinase panel (Z-LYTE Assay)) EUB0001632a MAPK10; settings: at 10 µM
[6] = target: Serine/threonine-protein kinase PAK 6 (Homo sapiens) (UniProt Q9NQU5); assay: Selectivity interaction (Kinase panel (Z-LYTE Assay)) EUB0001632a PAK6; settings: at 10 µM
[7] = target: STE20-like serine/threonine-protein kinase (Homo sapiens, UniProt Q9H2G2); assay: Selectivity interaction (ActivX KiNativ screen (kinase selectivity in THP-1 cell lysates)) EUB0000639a SLK; format: subcellular; settings: lysate, at 1 µM
[8] = target: Casein kinase I isoform delta (Homo sapiens, UniProt P48730); assay: Selectivity interaction (KinomeScan (DiscoverX)) EUB0000607a CSNK1D; settings: at 10 µM
Chain of Casein kinase I isoform delta (P48730 whole entry, looked up, canonical isoform): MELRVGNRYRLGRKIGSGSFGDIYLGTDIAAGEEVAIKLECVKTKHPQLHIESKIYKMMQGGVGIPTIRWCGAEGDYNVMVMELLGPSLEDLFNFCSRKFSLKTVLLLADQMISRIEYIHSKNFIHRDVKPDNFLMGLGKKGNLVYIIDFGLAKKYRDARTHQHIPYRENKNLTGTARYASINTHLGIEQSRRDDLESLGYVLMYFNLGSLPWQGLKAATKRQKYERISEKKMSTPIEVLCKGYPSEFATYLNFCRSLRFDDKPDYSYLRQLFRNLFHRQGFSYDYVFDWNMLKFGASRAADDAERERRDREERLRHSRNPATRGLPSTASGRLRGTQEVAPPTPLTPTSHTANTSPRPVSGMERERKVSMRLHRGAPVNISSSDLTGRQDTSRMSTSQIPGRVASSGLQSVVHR

[9] = target: T1, Mitogen-activated protein kinase kinase kinase kinase 2 (Homo sapiens) (UniProt Q12851); assay: Selectivity interaction (KinomeScan (DiscoverX)) EUB0001049a MAP4K2; settings: at 1 µM
T1 sequence (whole entry): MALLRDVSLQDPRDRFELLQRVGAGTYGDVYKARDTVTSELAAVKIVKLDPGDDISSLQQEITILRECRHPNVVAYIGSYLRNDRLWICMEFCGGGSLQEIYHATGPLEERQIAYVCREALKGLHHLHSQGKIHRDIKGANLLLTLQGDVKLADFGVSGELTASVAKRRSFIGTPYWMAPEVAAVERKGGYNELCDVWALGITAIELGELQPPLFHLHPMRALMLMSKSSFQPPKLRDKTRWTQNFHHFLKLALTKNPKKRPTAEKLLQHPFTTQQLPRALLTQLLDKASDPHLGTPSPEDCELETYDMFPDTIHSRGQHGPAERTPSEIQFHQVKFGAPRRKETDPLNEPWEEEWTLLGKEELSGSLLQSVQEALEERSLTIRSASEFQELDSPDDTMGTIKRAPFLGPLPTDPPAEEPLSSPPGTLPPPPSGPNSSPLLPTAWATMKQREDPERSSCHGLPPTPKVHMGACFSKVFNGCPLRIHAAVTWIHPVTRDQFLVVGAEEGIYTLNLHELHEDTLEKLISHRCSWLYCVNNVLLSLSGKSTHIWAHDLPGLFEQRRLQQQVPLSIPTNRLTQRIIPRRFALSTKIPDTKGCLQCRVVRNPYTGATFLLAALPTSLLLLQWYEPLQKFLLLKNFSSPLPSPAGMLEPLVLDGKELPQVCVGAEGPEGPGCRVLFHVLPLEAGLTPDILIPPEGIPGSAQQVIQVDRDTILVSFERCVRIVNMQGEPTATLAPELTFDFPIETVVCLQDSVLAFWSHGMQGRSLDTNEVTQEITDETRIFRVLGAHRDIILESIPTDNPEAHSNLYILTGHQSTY

[10] = target: Serine/threonine-protein kinase WNK2 (Homo sapiens) (UniProt Q9Y3S1); assay: Selectivity interaction (KinomeScan (DiscoverX)) EUB0000695a WNK2; settings: at 100 nM
[11] = target: Tyrosine-protein kinase Fgr (Homo sapiens) (UniProt P09769); assay: Selectivity interaction (KinomeScan (DiscoverX)) EUB0000595a FGR; settings: at 10 µM
[12] = target: T2, Receptor-interacting serine/threonine-protein kinase 1 (Homo sapiens) (UniProt Q13546); assay: Selectivity interaction (KinomeScan (DiscoverX)) EUB0000045b RIPK1
T2 sequence (whole entry): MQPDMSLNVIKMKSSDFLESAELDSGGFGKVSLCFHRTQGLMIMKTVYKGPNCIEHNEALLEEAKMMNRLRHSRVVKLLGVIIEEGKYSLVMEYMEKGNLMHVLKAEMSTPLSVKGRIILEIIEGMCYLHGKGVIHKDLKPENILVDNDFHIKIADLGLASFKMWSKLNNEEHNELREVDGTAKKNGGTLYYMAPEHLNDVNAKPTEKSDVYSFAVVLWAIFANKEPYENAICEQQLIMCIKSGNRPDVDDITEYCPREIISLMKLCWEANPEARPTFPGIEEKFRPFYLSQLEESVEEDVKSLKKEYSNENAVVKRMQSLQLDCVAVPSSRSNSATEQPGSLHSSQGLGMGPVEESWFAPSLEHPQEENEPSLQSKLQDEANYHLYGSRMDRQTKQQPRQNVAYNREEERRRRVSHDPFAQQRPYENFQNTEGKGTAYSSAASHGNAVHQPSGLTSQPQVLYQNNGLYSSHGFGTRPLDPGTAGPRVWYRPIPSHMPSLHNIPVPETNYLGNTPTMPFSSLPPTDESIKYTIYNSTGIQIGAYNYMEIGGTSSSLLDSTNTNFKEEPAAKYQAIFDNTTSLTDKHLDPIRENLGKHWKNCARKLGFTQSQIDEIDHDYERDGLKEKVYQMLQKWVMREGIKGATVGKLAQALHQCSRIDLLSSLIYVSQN

[13] = target: Mitogen-activated protein kinase 9 (Homo sapiens, UniProt P45984); assay: Selectivity interaction (Kinase panel (literature)) EUB0001199aCl MAPK9; settings: at 1 µM
Chain of Mitogen-activated protein kinase 9 (P45984 whole entry, looked up): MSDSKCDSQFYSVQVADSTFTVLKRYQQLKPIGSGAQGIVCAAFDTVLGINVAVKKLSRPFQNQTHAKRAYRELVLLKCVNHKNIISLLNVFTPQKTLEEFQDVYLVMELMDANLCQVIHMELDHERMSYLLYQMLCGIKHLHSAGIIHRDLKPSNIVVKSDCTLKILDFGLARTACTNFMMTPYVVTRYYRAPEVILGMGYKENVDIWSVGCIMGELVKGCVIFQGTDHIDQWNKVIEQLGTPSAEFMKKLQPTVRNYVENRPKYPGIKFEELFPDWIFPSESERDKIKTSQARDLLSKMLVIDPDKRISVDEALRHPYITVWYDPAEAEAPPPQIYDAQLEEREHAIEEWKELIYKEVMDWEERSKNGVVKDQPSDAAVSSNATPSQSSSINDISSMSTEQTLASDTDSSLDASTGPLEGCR

[14] = test system: Proto-oncogene tyrosine-protein kinase receptor Ret (Homo sapiens), P07949 [M918T]; assay: (§1) Selectivity interaction (KinomeScan (DiscoverX)) EUB0001619a RET; settings: at 1 µM
[15] = test system: Proto-oncogene tyrosine-protein kinase receptor Ret (Homo sapiens), P07949 [V804L]; assay: as §1; settings: at 1 µM
Chain of Proto-oncogene tyrosine-protein kinase receptor Ret (Homo sapiens), P07949 [V804L] (P07949 whole entry V804L): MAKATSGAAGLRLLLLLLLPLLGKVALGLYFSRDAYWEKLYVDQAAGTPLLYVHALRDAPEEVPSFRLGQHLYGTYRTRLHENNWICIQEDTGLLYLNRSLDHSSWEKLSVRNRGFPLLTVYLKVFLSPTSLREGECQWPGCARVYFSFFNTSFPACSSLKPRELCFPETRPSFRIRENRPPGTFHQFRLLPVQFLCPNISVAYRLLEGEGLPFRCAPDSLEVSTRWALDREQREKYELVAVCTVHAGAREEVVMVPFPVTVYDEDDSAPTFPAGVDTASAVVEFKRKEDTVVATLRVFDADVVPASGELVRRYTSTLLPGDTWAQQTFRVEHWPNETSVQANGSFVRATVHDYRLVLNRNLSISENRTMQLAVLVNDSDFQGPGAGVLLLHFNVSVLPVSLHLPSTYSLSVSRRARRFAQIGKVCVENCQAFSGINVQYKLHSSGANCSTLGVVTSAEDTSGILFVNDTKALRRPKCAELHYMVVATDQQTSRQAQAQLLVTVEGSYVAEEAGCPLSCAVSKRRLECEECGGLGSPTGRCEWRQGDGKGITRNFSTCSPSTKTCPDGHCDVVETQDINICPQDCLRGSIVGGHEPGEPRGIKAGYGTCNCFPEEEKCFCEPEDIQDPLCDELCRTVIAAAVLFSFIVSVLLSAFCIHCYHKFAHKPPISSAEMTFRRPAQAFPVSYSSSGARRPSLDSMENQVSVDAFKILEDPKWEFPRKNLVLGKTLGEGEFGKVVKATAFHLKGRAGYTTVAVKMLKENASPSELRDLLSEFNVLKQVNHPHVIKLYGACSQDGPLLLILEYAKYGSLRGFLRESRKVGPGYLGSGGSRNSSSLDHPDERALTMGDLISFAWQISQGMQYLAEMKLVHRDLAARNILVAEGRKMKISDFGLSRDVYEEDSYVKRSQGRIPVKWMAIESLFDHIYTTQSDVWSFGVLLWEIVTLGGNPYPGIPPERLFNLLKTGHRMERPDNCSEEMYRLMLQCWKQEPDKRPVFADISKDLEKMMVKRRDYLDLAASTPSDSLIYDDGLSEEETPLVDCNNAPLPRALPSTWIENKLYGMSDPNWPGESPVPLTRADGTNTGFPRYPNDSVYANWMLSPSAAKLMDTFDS

[16] = test system: Proto-oncogene tyrosine-protein kinase receptor Ret (Homo sapiens), P07949 [V804M]; assay: as §1; settings: at 1 µM
[17] = target: Proto-oncogene tyrosine-protein kinase receptor Ret (Homo sapiens, UniProt P07949); assay: as §1; settings: at 1 µM

Chain of Tyrosine-protein kinase JAK1 (P23458 whole entry): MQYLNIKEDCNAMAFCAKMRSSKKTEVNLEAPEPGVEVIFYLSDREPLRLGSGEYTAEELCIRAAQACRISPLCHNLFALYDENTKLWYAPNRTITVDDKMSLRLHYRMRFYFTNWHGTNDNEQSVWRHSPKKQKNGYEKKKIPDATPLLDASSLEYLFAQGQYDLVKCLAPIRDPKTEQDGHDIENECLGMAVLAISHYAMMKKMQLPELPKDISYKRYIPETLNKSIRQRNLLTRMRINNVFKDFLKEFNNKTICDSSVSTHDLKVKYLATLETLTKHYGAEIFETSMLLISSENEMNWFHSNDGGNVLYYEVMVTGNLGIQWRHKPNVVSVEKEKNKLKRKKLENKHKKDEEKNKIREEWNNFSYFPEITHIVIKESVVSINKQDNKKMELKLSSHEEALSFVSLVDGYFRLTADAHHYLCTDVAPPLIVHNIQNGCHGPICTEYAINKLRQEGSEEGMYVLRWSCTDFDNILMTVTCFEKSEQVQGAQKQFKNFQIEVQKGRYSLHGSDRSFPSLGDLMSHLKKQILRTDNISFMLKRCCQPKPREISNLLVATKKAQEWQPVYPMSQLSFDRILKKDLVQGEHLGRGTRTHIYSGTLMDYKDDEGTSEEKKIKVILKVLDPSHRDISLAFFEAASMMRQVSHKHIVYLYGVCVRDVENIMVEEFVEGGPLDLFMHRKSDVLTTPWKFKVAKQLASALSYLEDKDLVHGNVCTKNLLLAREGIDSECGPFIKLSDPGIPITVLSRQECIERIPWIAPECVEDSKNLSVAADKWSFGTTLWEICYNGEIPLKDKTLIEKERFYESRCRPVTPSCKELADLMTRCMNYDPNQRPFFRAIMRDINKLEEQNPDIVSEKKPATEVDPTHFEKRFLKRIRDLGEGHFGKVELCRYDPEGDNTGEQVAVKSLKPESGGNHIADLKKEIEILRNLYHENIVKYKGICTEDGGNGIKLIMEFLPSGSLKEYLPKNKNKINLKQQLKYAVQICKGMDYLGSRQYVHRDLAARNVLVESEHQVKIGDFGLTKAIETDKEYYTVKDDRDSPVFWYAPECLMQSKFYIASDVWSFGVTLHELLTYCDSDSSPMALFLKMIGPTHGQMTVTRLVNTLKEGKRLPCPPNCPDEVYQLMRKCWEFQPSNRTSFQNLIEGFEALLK

`CCN(CC)CCCCNc1ncc2cc(-c3cc(OC)cc(OC)c3)c(NC(=O)NC(C)(C)C)nc2n1` gave a % of control [1] of 100%.

In the case of `COc1cc(N(C)c2ccnc3ccc(C(F)(F)F)cc23)cc(OC)c1OC`, the % binding [2] is reported as 82%.

`CCC(=O)N1CCN(c2ccc(-n3c(=O)ccc4cnc5ccc(-c6cnc7ccccc7c6)cc5c43)cc2C(F)(F)F)CC1` was tested, and the % of control [3] was 98%.

With `Cc1ccc(-c2ccc3c(ccc4sc5c(c43)NC[C@@H](C)NC5=O)n2)cn1` the % of inhibition [4] was -11%.

Work on `C=CC(=O)Nc1cccc(C(=O)Nc2ccc(Nc3cc(-c4[nH]c(SC)nc4C)ccn3)cc2)c1` yielded a % of control (Ephrin type-A receptor 4; at 1 µM) of 93% and a % of control (Ephrin type-A receptor 4; at 5 µM) of 78%.

For `Cn1cc(-n2cnc3c(NCc4nc5cc(Cl)c(Cl)cc5[nH]4)nc(N4CCOCC4)nc32)cn1`, the % of control [5] was 3.04% and the % of control [6] was -5.74%.

`CC[C@@H]1[C@H](F)C(=O)N[C@@H]1COc1nccc2cc(C(N)=O)c(OC)cc12` [ZIMLOVISERTIB] showed a % of inhibition [7] of -14.8%.

`CNC(=O)Nc1ccc(-c2nc(N3CC4CCC(C3)O4)c3cnn(C4CCC5(CC4)OCCO5)c3n2)cc1` was tested, and the % of control [8] was 92%.

`COc1cc(Nc2nc(C)cc(-c3cnn4nc(OC)ccc34)n2)cc(C(F)(F)F)c1` showed a % of control [9] of 99%.

Work on `Cc1cc(F)c(C(=O)Nc2cccc(-c3nncn3C(C)C)n2)cc1-n1cnc(C2CC2)c1` yielded a % of control [10] of 78%.

`COCC(=O)NC/C=C/c1ccc2ncnc(Nc3ccc(Oc4ccc(C)nc4)c(C)c3)c2c1` [CP-724714] gave a % of control [11] of 89%.

For `C=CC(=O)Nc1cc(-n2c(=O)ccc3cnc4ccc(-c5ccc(NS(C)(=O)=O)cc5)cc4c32)ccc1C`, the % of control ([12]; at 1 µM) was 87% and the % of control ([12]; at 10 µM) was 100%.

`CN1Cc2nccc(-c3cn(C)nc3-c3ccc(F)cc3)c2C1=O` showed a % of inhibition [13] of 18%.

In the case of `N#Cc1cccc(-c2c[nH]c3ncnc(N4CCOCC4)c23)c1`, the % of control [14] is reported as 70%, the % of control [15] is reported as 95% and the % of control [16] is reported as 58%. It also gave a % of control [17] of 78%.
